Data reported in patent publication US10947252B2, “Inhibitors of KEAP1-Nrf2 protein-protein interaction” (Janssen Pharmaceutica NV, priority 2018, dated 2021).

Assays:
[1] = target: Kelch domain of human KEAP1 (321-624 aa) (Homo sapiens (Human), UniProt Q14145); experiment: KEAP1 KELCH ThermoFluor binding assay; conditions: KEAP Kelch […], 1,8-ANS, pH 7.0, average of results obtained, read-out: Tf Kd;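 note: Ligand-induced melting temperature shift of E. coli-expressed KEAP1 Kelch protein, Kd estimated from concentration-response curves of ΔTm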
Kelch domain of human KEAP1 (321-624 aa), sequence (Q14145 321-624): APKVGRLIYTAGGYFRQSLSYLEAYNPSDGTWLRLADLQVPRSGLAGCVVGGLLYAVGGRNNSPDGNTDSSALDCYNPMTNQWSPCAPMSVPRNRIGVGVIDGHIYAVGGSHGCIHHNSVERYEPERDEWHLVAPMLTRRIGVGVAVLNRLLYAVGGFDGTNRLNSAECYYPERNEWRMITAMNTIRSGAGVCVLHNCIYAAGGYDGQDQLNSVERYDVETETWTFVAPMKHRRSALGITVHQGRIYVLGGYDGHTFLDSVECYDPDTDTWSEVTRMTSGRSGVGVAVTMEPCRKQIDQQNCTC
Excerpt: The shift in the melting point described as a ΔTm is proportional to the concentration and affinity of the ligand. The compound potency may be compared as a rank order of either ΔTm values at a single compound concentration or in terms of KD values, estimated from concentration response curves.
The protein was expressed in E. coli with 6His tag that was cleaved prior to receipt for use.
Protein (KEAP Kelch) and compound solutions were dispensed into black 384-well polypropylene PCR microplates (Abgene) and overlayed with silicone oil (1 μL, Fluka, type DC 200) to prevent evaporation.

[2] = tested on: Glo-Response ARE-luc2P HEK293 cell line; experiment: ARE luciferase reporter cell-based assay; conditions: average of results obtained;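 note: luciferase signal tracks Nrf2 activation of the ARE once compounds disrupt KEAP1-Nrf2 binding, read with One-Glo reagent, DMSO serving as low control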

Kd [1] [nM]	Structure (SMILES)	EC50 ([2]; 24 hours) [nM]	EC50 ([2]; Homo sapiens, HEK293, 24 h) [nM]
4	Cc1ccc([C@@H](CC(=O)O)c2ccc3c(nnn3CC3CC3)c2C(F)F)cc1CN1C[C@H]2CCCCN2c2ncccc2S1(=O)=O (single isomer, unassigned) [Example 173, (*R)-3-(1-(Cyclopropylmethyl)-4-(difluoromethyl)-1H-benzo[d][1,2,3]triazol-5-yl)-3-(3-(((R)-5,5-dioxido-7,7a,8,9,10,11-hexahydro-6H-dipyrido[2,1-d:2′,3′-f][1,2,5]thiadiazepin-6-yl)methyl)-4-methylphenyl)propanoic Acid]	540	–
< 1	Cc1cnc2c(c1)S(=O)(=O)N(Cc1nc(C(CC(=O)O)c3ccn4c(C(F)(F)F)nnc4c3C)ccc1C)C[C@@H]1CCCCN21 (stereo in doubt) [Example 487, 3-(8-Methyl-3-(trifluoromethyl)-[1,2,4]triazolo[4,3-a]pyridin-7-yl)-3-(5-methyl-6-(((*S)-3-methyl-5,5-dioxido-7,7a,8,9,10,11-hexahydro-6H-dipyrido[2,1-d:2′,3′-f][1,2,5]thiadiazepin-6-yl)methyl)pyridin-2-yl)propanoic Acid]	–	18.3
< 1	Cc1ccc([C@@H](CC(=O)O)c2ccn3c(C(F)(F)F)nnc3c2)cc1CN1C[C@@H]2CCCN2c2ncccc2S1(=O)=O (single isomer, unassigned) [Example 255, (*R)-3-(3-(((S)-5,5-Dioxido-7a,8,9,10-tetrahydropyrido[2,3-f]pyrrolo[2,1-d][1,2,5]thiadiazepin-6(7H)-yl)methyl)-4-methylphenyl)-3-(3-(trifluoromethyl)-[1,2,4]triazolo[4,3-a]pyridin-7-yl)propanoic Acid]	–	922
0.042	Cc1ccc(C(CC(=O)O)c2cc(OC(F)F)c3c(c2)nnn3C)cc1CN1C[C@H]2CCCCN2c2ncccc2S1(=O)=O (stereo in doubt) [Example 1, 3-(7-(Difluoromethoxy)-1-methyl-1H-benzo[d][1,2,3]triazol-5-yl)-3-(3-(((*R)-5,5-dioxido-7,7a,8,9,10,11-hexahydro-6H-dipyrido[2,1-d:2′,3′-f][1,2,5]thiadiazepin-6-yl)methyl)-4-methylphenyl)propanoic acid]	–	35
< 1	Cc1ccc([C@H](CC(=O)O)c2ccn3c(C(F)(F)F)nnc3c2C)cc1CN1CC2(CC2)Oc2nc(N(C)CCCO)ccc2S1(=O)=O (single isomer, unassigned) [Example 108, (*S)-3-(-3-((7′-((3-Hydroxypropyl)(methyl)amino)-1′,1′-dioxidospiro[cyclopropane-1,4′-pyrido[2,3-b][1,4,5]oxathiazepin]-2′(3′H)-yl)methyl)-4-methylphenyl)-3-(8-methyl-3-(trifluoromethyl)-[1,2,4[triazolo[4,3-a]pyridine-7-yl)propanoic Acid]	–	406
< 1	Cc1cnc2c(c1)S(=O)(=O)N(Cc1cc([C@H](CC(=O)O)c3ccn4c(C(F)(F)F)nnc4c3C)ccc1Cl)CC1CCCCN21 (single isomer, unassigned) [Example 91, (*S)-3-(4-Chloro-3-(((*S)-3-methyl-5,5-dioxido-7,7a,8,9,10,11-hexahydro-6H-dipyrido[2,1-d:2′,3′-f][1,2,5]thiadiazepin-6-yl)methyl)phenyl)-3-(8-methyl-3-(trifluoromethyl)-[1,2,4]triazolo[4,3-a]pyridine-7-yl)propanoic Acid]	–	14.4
< 1	Cc1cnc2c(c1)S(=O)(=O)N(Cc1cc([C@H](c3ccn4c(C(F)(F)F)nnc4c3C)C(C)(C)C(=O)O)cnc1C)CC1(CC1)O2 (single isomer, unassigned) [Example 573, (*S)-2,2-Dimethyl-3-(8-methyl-3-(trifluoromethyl)-[1,2,4]triazolo[4,3-a]pyridin-7-yl)-3-(6-methyl-5-((8′-methyl-1′,1′-dioxidospiro[cyclopropane-1,4′-pyrido[2,3-b][1,4,5]oxathiazepin]-2′(3′H)-yl)methyl)pyridin-3-yl)propanoic Acid]	–	–
< 1	Cc1ccc([C@@H](c2ccn3c(C(F)(F)F)nnc3c2C)C(C)(C)C(=O)O)cc1CN1CC2(CC2)Oc2nc(OCCN3CCC(F)CC3)c(C)cc2S1(=O)=O (single isomer, unassigned) [Example 661, (*S)-3-(3-((7′-(2-(4-fluoropiperidin-1-yl)ethoxy)-8′-methyl-1′,1′-dioxidospiro[cyclopropane-1,4′-pyrido[2,3-b][1,4,5]oxathiazepin]-2′(3′H)-yl)methyl)-4-methylphenyl)-2,2-dimethyl-3-(8-methyl-3-(trifluoromethyl)-[1,2,4]triazolo[4,3-a]pyridine-7-yl)propanoic Acid]	–	–
< 1	Cc1ccc([C@@H](c2ccc3c(nnn3C3CC3)c2C)C(C)(C)C(=O)O)cc1CN1CC2(CC2)Oc2nc(N[C@@H](C)CN3CCCCC3)c(C)cc2S1(=O)=O (single isomer, unassigned) [Example 659, (*S)-3-(1-Cyclopropyl-4-methyl-1H-benzo[d][1,2,3]triazol-5-yl)-2,2-dimethyl-3-(4-methyl-3-((8′-methyl-1′,1′-dioxido-7′-(((S)-1-(piperidin-1-yl)propan-2-yl)amino)spiro[cyclopropane-1,4′-pyrido[2,3-b][1,4,5]oxathiazepin]-2′(3′H)-yl)methyl)phenyl)propanoic Acid]	–	–
6750	Cc1cnc2c(c1)S(=O)(=O)N(Cc1cc(C(c3ccn4c(C(F)(F)F)nnc4c3C)C(C)(C)C(=O)O)cnc1C)CC1(CC1)O2 (single isomer, unassigned) [Example 574, (*R)-2,2-Dimethyl-3-(8-methyl-3-(trifluoromethyl)-[1,2,4]triazolo[4,3-a]pyridin-7-yl)-3-(6-methyl-5-((8′-methyl-1′,1′-dioxidospiro[cyclopropane-1,4′-pyrido[2,3-b][1,4,5]oxathiazepin]-2′(3′H)-yl)methyl)pyridin-3-yl)propanoic Acid]	–	–
–	Cc1ccc([C@@H](CC(=O)O)c2ccn3c(C(F)(F)F)nnc3c2C)cc1CN1C[C@H]2COCCN2c2ncccc2S1(=O)=O (single isomer, unassigned) [Example 263, (*R)-3-(3-(((*S)-5,5-Dioxido-7a,8,10,11-tetrahydro-[1,4]oxazino[3,4-d]pyrido[2,3-f][1,2,5]thiadiazepin-6(7H)-yl)methyl)-4-methylphenyl)-3-(8-methyl-3-(trifluoromethyl)-[1,2,4]triazolo[4,3-a]pyridin-7-yl)propanoic Acid]	–	1160
–	Cc1cnc([C@H](c2ccn3c(C(F)F)nnc3c2C)C(C)(C)C(=O)O)cc1CN1CC2(CCOCC2)Oc2nc(OCCN3CCCCC3)c(C)cc2S1(=O)=O (single isomer, unassigned) [Example 641, (*R)-3-(3-(Difluoromethyl)-8-methyl-[1,2,4]triazolo[4,3-a]pyridin-7-yl)-2,2-dimethyl-3-(5-methyl-4-((8′-methyl-1′,1′-dioxido-7′-(2-(piperidin-1-yl)ethoxy)-2,3,5,6-tetrahydrospiro[pyran-4,4′-pyrido[2,3-b][1,4,5]oxathiazepin]-2′(3′H)-yl)methyl)pyridin-2-yl)propanoic Acid]	–	2290
